Test results taken from PMC12973313 (Chemical Science, 2026).
Like-named read-outs stand apart in the source and are kept apart here.

Key:
[1] = set-up: method as in PMID 29633393; conditions: H2O 5% EtOH, cited from earlier work
[2] = Bi-directional permeability in Caco-2 cell line; type: in vitro ADME; conditions: human; for recovery at 2 h, 5 µM: Caco-2, pH 7.4, after 2 hours
Description: Next, to gauge the suitability of SSAs for oral dosing, 9 was subjected to a Caco-2 permeability assay which is used to both predict human intestinal permeability and investigate drug efflux, predicting in vivo compound absorption. This assay allows assessment of a compound's ability to undergo transport from the apical to the basolateral (A–B) compartments of the cell monolayer and vice versa (B–A). […] This is likely to result in poor absorption when dosed orally and therefore further development would be necessary for these agents to become suitable for oral administration. […]
The ionspray voltage was 5500V.
Bi-directional Permeability in Caco-2 Cell Line:
The bi-directional permeability in Caco-2 cell lines was determined by seeding cells onto an HTS Transwell plate. Cells were cultivated for 14-18 days in a cell culture incubator at 37°C, 5% CO2, 95% relative humidity. Cell culture medium was replaced every other day. To assess monolayer integrity the transepithelial electrical resistance (TEER) across the monolayer was measured using Millicell Epithelial volt-ohm meter prior to assay and Lucifer yellow (LY) fluorescence measurement post-assay.
Test compound was prepared in DMSO and diluted in Hank’s Balanced Saline Solution (HBSS, pH 7.4) to a final concentration of 5 µM. Compound was added to the donor compartment of the transwell plate for both apical to basolateral (A>B) and basolateral to apical (B>A) measurements, with blank HBSS being added to the receiver compartment. The transwell plate was then incubated at 37°C, 5% CO2 for 2 hours.
Samples were taken at T=0 and T=2 hours determine the concentration of initial donor sample, and the concentration of receiver and donor wells post-incubation, respectively.
The samples were quenched with solvent containing internal standard (IS). The supernatant was mixed with an appropriate volume of ultra-pure water before LC-MS/MS analysis.
Samples were analysed using a Shimadzu Nexera LC Binary Gradient LC-30AD (Shimadzu Inc, Kyoto), coupled to a Sciex 6500+ (AB Inc., Illinois). Separation of compounds was achieved using a HALO 90Å biphenyl (2.7µm,2.1x50mm) (Advanced Materials Technology, Wilmington) column at a temperature of 40°C. A binary mobile phase gradient at a flow rate of 0.7 mL/min was used. Initial LC conditions comprised of 95% solvent A (0.1% formic acid in water) and 5% solvent B (0.1% formic acid in acetonitrile). This was ramped to 95% solvent B at 0.7 minutes, held for 0.5 minutes and then immediately returned to initial conditions. Sample analysis was by electrospray ionisation combined with multiple reaction monitoring in positive ion mode. The ion spray voltage was 5500V.
In vitro Absorption, Distribution and Metabolism results
Table S1 – Result from solubility assays performed in PBS pH 7.4 for SSA 9.
Table S2 – Summary of results from Caco-2 permeability assays for SSA 9. Papp is given as […]
cm/s. A = apical; B = basolateral. Recovery = % SSA recovered from the assay after 2 hours.
ID Papp (A-B) % Recovery Papp (B-A) % Recovery Efflux Ratio
Table S3 – Summary of results from human plasma protein binding assays for SSA 9. % Bound = % of SSA bound to the plasma proteins after 6 hours incubation at 37 °C. Low % […]
= > 99 %. % Recovery = % SSA recovered from the assay after 6 hours.
ID % Bound % Recovery % Stability
Table S4 – Summary of results from mouse, rat and human microsomal stability assays for SSA 9. The in vitro half-life (t1/2) and microsomal intrinsic clearance (CLint) were calculated from the elimination rate (k, the slope of the natural log of concentration verses time curve), assuming first order kinetics, using the formulae t1/2 = 0.693/-k and CLint = 0.693/t1/2 […]. This compound would be classed as a low clearance compound in all three species. […]

[3] = Plasma protein binding, equilibrium dialysis; type: in vitro ADME, human
Protocol: This allows an assessment of the free drug concentration available to distribute into the tissues and interact with the target. The extent to which a compound binds to the constituents of blood plasma can influence drug distribution. […] page 10: In vitro Absorption, Distribution and Metabolism studies General note: These studies were performed by Contract Research Organisation (CRO) Pharmaron. The methodology provided within the ESI is published within the express permission of this organisation. The percentage of a compound recovered during the […] limitations such as unintended potential non-specific binding events to experimental equipment, solubility issues, etc. Protein Binding measurements in human plasma by using equilibrium dialysis: The fraction unbound in human plasma (P-KB, Ltd People's hospital of Shandong) was measured using 96-well Equilibrium Dialysis Plate (HTDialysis LLC, Gales Ferry, CT). Human plasma containing 5 μM test compound was dialysed against dialysis buffer (PBS, pH 7.4) with initial samples taken to allow for assessment of plasma stability and recovery before the plate was incubated for 6 hours at 37°C at 5% CO2. Samples were removed at 6 hours, and all samples were matrix matched and quenched with acetonitrile containing internal standard. Samples were centrifuged at 3,220g for 30 minutes to precipitate protein and enable sampling of supernatant prior to appropriate dilution for liquid chromatography mass-spectrometry (LC-MS/MS) analysis. Samples were analysed using a Shimadzu Nexera LC Binary Gradient LC-30AD (Shimadzu Inc, Kyoto), coupled to a Sciex 6500+ (AB Inc., Illinois). Separation was achieved using a XSelect HSS T3 (2.5μm, 2.1 x 50 mm) (Waters Ltd., Wilmslow) column at a temperature of 40°C and a binary mobile phase gradient at a flow rate of 0.8 mL/min. Initial LC conditions comprised of […] was ramped to 98% B at 0.5 min, held for 0.4 min and then immediately returned to initial conditions. Sample analysis was by electrospray ionisation in combined with multiple reaction monitoring in positive ionisation mode. The ionisation voltage was +5500 V. Kinetic Solubility Determination in PBS pH 7.4: The stock solutions of test and control compounds were prepared in DMSO at 10 mM. From […] These solutions were then shaken at 1100 rpm for 2 hours at 25°C. Following incubation, the samples were filtered using a vacuum manifold. The filtrate was analysed and quantified against a standard of known concentration using liquid chromatography mass- spectrometry (LC-MS/MS). Samples were analysed using a Shimadzu Nexera LC Binary Gradient LC-30AD (Shimadzu Inc, Kyoto), coupled to a Sciex 4500 mass spectrometer (AB Inc., Illinois). Separation of […] Wilmslow) at a temperature of 40°C and a binary mobile phase gradient at a flow rate of 0.8 mL/min. […] This was ramped to 98% solvent B at 0.5 minutes, held for 0.4 minutes and then immediately returned to initial conditions. Sample analysis was by electrospray ionisation combined with multiple reaction monitoring in positive ion mode. The ionspray voltage was […]. 10

Compound	CAC (mM) ([1]; approx. 291 K)	Surface tension (mN m^-1) [1]	Papp B→A at 2 h, 5 µM ([2]; Caco-2, pH 7.4, 5 µM, 2 hours, basolateral to apical)	efflux ratio at 2 h, 5 µM ([2]; Caco-2, pH 7.4, Caco-2)	recovery at 2 h, 5 µM ([2]; read-out: Recovery (%) AP-BL)	recovery at 2 h, 5 µM ([2]; read-out: Recovery (%) BL-AP)	Papp A→B at 2 h, 5 µM ([2]; Caco-2, pH 7.4, 5 µM, 2 hours, apical to basolateral)	% Bound ([3]; human plasma, 5 µM, 6 hours, 37 °C)	% Unbound ([3]; human plasma, 6 hours)	% Stability / % Remaining at 6 hr ([3]; human plasma, 6 hr)	% Recovery ([3]; human plasma, after 6 hours)	recovery at 6 h, 5 µM ([3]; human, human plasma, pH 7.4, human plasma, after 6 hours)	remaining at 6 h, 5 µM ([3]; human, plasma, human plasma, 6 hr, read-out: % Stability / % Remaining at 6 hr)	fraction unbound at 6 h, 5 µM ([3]; human, plasma, pH 7.4, human plasma, 5 µM, 6 hours, 37 °C, read-out: % Bound (converted))	fraction unbound at 6 h, 5 µM ([3]; human, plasma, pH 7.4, human plasma, 6 hours, read-out: % Unbound)
O=C(O)CNC(=O)Nc1ccc(C(F)(F)F)cc1 [SSA 1]	11.2 (ref. [30]) mM	39.33 (ref. [30]) mN m^−1	–	–	–	–	–	–	–	–	–	–	–	–	–
O=C(Nc1ccc(C(F)(F)F)cc1)N[C@H](Cc1ccccc1)C(=O)O [SSA 9]	–	–	16.8 ×10⁻⁶ cm/s	96.9	111%	97.7%	0.17 ×10⁻⁶ cm/s	99.73%	0.3%	98.85%	98.3%	98.3%	98.9%	0.003	0.0027
